Source: article PMC11224556, “Next-generation of BBQ analogues that selectively target breast cancer” (Frontiers in Chemistry, 2024)
Like-named read-outs stand apart in the source and are kept apart here.

Columns and labels:
Type in all cases: cell-based, human
A2780 (ovary) cells = assay: MTT growth inhibition assay (72 h)
Text: (§1) Each BBQ analogue, 2-14 was screened for their growth inhibition ability (GI50) in a broad panel of cancer cell lines and a non-cancer breast cell line (MCF10A), using the MTT growth inhibition assay (Table 1) ([Baker et al., 2021b]). The cancer panel comprised HT29 (colorectal), U87 (brain), SJ-G2 (brain), A2780 (ovary), Du145 (prostate), BE2-C (neuronal), MIA (pancreas), H460 (lung, ER+), A431 (vulva, ER+ (estrogen receptor positive)), and a wide selection of breast cancer cell lines with varying receptor status including MCF-7 (ER + luminal A), T47D (ER/PR+ (progesterone receptor positive)luminal A), ZR-75-1 (ER/PR + luminal A), BT-474 (ER/PR/HER2+ luminal B), SKBR-3 (HER2+), MDA-MB-468, BT20, and MDA-MB-231 (basal, triple negative (TN) for ER, PR, and HER2).
(§2) Stock solutions were prepared as follows and stored as 20 mM DMSO solutions at −20 °C. All cell lines were cultured in a humidified atmosphere 5% CO2 at 37 °C. The cancer cell lines were maintained in Dulbecco’s modified Eagle’s medium (DMEM) (Trace Biosciences, Australia) supplemented with 10% foetal bovine serum (FBS), 10 mM sodium bicarbonate, penicillin (100 IU/mL), streptomycin (100 μg/mL), and glutamine (4 mM). The non-cancer MCF10A cell line was cultured in DMEM:F12 (1:1) cell culture media, 5% heat inactivated horse serum, supplemented with penicillin (50 IU/mL), streptomycin (50 μg/mL), 20 mM Hepes, L-glutamine (2 mM), epidermal growth factor (20 ng/mL), hydrocortisone (500 ng/mL), cholera toxin (100 ng/mL), and insulin (10 μg/mL). The AhR reporter cell line HT29-Lucia™ (Invivogen, United States) was maintained in DMEM supplemented with 10% heat inactivated FBS, L-glutamine (2 mM), penicillin (100 IU/mL), streptomycin (100 μg/mL), 100 μg/mL Normocin™, and 100 μg/mL of the selective antibiotic Zeocin™. All cell lines were purchased from the American Type Culture Collection (ATCC), except for A2780 and A431 which were from the European Collection of Authenticated Cell Cultures (ECACC), and SJ-G2 cell line which was from Dr Mary Danks, St Jude Children’s Research hospital, Memphis, TN.
(§3) Cells in logarithmic growth were transferred to 96-well plates. Cytotoxicity was determined by plating cells in duplicate in 100 μL medium at a density of 2,500–4,000 cells/well in 96 well plates. On day 0, (24 h after plating) when the cells were in logarithmic growth 100 μL medium with or without the test agent was added to each well. After 72 h drug exposure growth inhibitory effects were evaluated using the MTT (3-[4,5-dimethylthiazol-2-yl]-2,5-diphenyltetrazolium bromide) assay with absorbance read at 540 nm. An eight-point dose response curve was produced, using MS Excel software. From these dose-response curves, the GI50 value was calculated, representing the drug concentration at which cell growth is 50% inhibited based on the difference between the optical density values on day 0 and those at the end of drug exposure ([Bradshaw et al., 2008]; [Zhang et al., 2009]). Each data point was conducted in duplicate and the mean ± S.E.M. calculated from four to five replicates (n = 4 or 5), which were performed on separate occasions and separate cell line passages. Where shown, significant test results were determined using T-test analysis at p < 0.01 and p < 0.05 with a two tail distribution.

A431 (vulva/skin) cells = assay: MTT growth inhibition assay (72 h)
Text: as §1, §2, §3

BE2-C (neuronal) cells = assay: MTT growth inhibition assay (72 h); conditions: Neuron
Text: as §1, §2, §3

BT20 breast cancer cells = assay: MTT growth inhibition assay (72 h)
Text: as §1, §2, §3

[1] = system: BT474 breast cancer cells; assay: MTT growth inhibition assay (72 h)
Text: as §1, §2, §3

Du145 (prostate) cells = assay: MTT growth inhibition assay (72 h)
Text: as §1, §2, §3

H460 (lung) cells = assay: MTT growth inhibition assay (72 h)
Text: as §1, §2, §3

HT29 (colorectal) cells = assay: MTT growth inhibition assay (72 h); conditions: HT29, Colon
Text: as §1, §2, §3

[2] = system: MCF-7 breast cancer cells; assay: MTT growth inhibition assay (72 h)
Text: as §1, §2, §3

[3] = system: MCF10A normal breast cells; assay: MTT growth inhibition assay (72 h)
Text: as §1, §2, §3

[4] = system: MDA-MB-231 breast cancer cells; assay: MTT growth inhibition assay (72 h); conditions: MDA-MB-231, Breast (TN)
Text: as §1, §2, §3

[5] = system: MDA-MB-468 breast cancer cells; assay: MTT growth inhibition assay (72 h); conditions: MDA-MB-468, Breast (TN)
Text: as §1, §2, §3

MIA (pancreas) cells = assay: MTT growth inhibition assay (72 h)
Text: as §1, §2, §3

SJ-G2 (brain) cells = assay: MTT growth inhibition assay (72 h); conditions: SJ-G2, Brain (GBM)
Text: as §1, §2, §3

[6] = system: SKBR3 breast cancer cells; assay: MTT growth inhibition assay (72 h)
Text: as §1, §2, §3

T47D breast cancer cells = assay: MTT growth inhibition assay (72 h); conditions: Breast (ER/PR)
Text: as §1, §2, §3

U87 (brain) cells = assay: MTT growth inhibition assay (72 h); conditions: U87, Brain (GBM)
Text: as §1, §2, §3

[7] = system: ZR-75-1 breast cancer cells; assay: MTT growth inhibition assay (72 h); conditions: ZR-75-1, Breast (ER/PR)
Text: as §1, §2, §3

[8] = system: broad panel of cancer cell lines and non-cancer breast cell line MCF10A; assay: MTT growth inhibition: GI50 ranges and selectivity across the cell line panel
Text: as §1, §2, §3

Row | Molecule | GI50 (A2780 (ovary) cells) | GI50 (A431 (vulva/skin) cells; A431, Skin (ER)) | GI50 (BE2-C (neuronal) cells) | GI50 (BT20 breast cancer cells; BT20, Breast (TN)) | GI50 ([1]; BT474, Breast (ER/PR/HER2)) | GI50 (Du145 (prostate) cells) | GI50 (H460 (lung) cells; H460, Lung (ER)) | GI50 (HT29 (colorectal) cells) | GI50 ([2]; MCF-7, Breast (ER)) | GI50 [3] | GI50 [4] | GI50 [5] | GI50 (MIA (pancreas) cells) | GI50 (SJ-G2 (brain) cells) | GI50 ([6]; SKBR3, Breast (HER2)) | GI50 (U87 (brain) cells) | GI50 [7] | further results
1 | 9-Methyl-7H-benzo[de]benzo[4,5]imidazo[2,1-a]isoquinolin-7-one (8a) and 12-methyl-7H-benzo[de]benzo[4,5]imidazo[2,1-a]isoquinolin-7-one (8b) [Compound 8] | 11 ± 0.58 µM | 0.56 ± 0.14 µM | 15 ± 10 µM | 1.4 ± 0.8 µM | 4.6 ± 2.7 µM | 38 ± 6.9 µM | 27 ± 6.7 µM | 3.7 ± 0.69 µM | 2.8 ± 0.61 µM | 2 ± 1.3 µM | 8.2 ± 3.3 µM | 0.056 ± 0.024 µM | 20 ± 10 µM | 24 ± 8.4 µM | 0.27 ± 0.027 µM | 38 ± 2.5 µM | 0.59 ± 0.38 µM | GI50 (T47D breast cancer cells): 0.8 ± 0.11 µM
2 | 3-Nitro-7H-benzo[de]benzo[4,5]imidazo[2,1-a]isoquinolin-7-one (11a) and 4-nitro-7H-benzo[de]benzo[4,5]imidazo[2,1-a]isoquinolin-7-one (11b) [Compound 11] | 0.01 ± 0.003 µM | 0.088 ± 0.031 µM | 0.74 ± 0.13 µM | 0.0084 ± 0.004 µM | 0.15 ± 0.053 µM | 0.32 ± 0.049 µM | 0.00019 ± 0.0001 µM | 0.3 ± 0.11 µM | 0.0065 ± 0.0038 µM | 0.0031 ± 0.002 µM | 2.1 ± 0.29 µM | 0.0015 ± 0.0008 µM | 1.4 ± 0.45 µM | 0.61 ± 0.14 µM | 0.036 ± 0.006 µM | 0.55 ± 0.11 µM | 0.0027 ± 0.0022 µM | fold more potent than head group substituted analogues 3, 4, 6, 7, 8 and 9 ([8]; across the cell lines examined (Table 1)): > 10 fold
3 | Nc1ccccc1N1C(=O)c2cccc3cccc(c23)C1=O [Compound 2, 2-(2-aminophenyl)-1H-benzo[de]isoquinoline-1,3(2H)-dione] |  |  |  |  |  |  |  |  |  |  |  |  |  |  |  |  |  | increase in growth inhibition potency compared with MCF10A cells (fold, range over cell lines) ([8]; A431, T47D, ZR-75-1, SKBR3, MDA-MB-468 vs MCF10A, from GI50 values of ref Gilbert et al., 2020): 100 to 300 fold
4 | O=C(O)c1ccc2c3c1cccc3c(=O)n1c3ccccc3nc21 [Compound 14, reference compound] |  |  |  |  |  |  |  |  |  |  |  |  |  |  |  |  |  | GI50 (A2780 (ovary) cells; Homo sapiens): 12 ± 0.91 µM; GI50 (A431 (vulva/skin) cells; Homo sapiens, A-431, A431, Skin (ER)): 28 ± 5.1 µM; GI50 (BE2-C (neuronal) cells; Homo sapiens, BE(2)-C): 6.9 ± 1.6 µM; GI50 (BT20 breast cancer cells; Homo sapiens, BT-20, BT20, Breast (TN)): 50 µM; GI50 ([1]; Homo sapiens, BT-474, BT474, Breast (ER/PR/HER2)): > 50 µM; GI50 (Du145 (prostate) cells; Homo sapiens, DU-145): 21 ± 2 µM; GI50 (H460 (lung) cells; Homo sapiens, NCI-H460, H460, Lung (ER)): 20 ± 0.33 µM; GI50 ([2]; Homo sapiens, MCF7, MCF-7, Breast (ER)): > 50 µM; GI50 ([3]; Homo sapiens, MCF-10A): 15 ± 0.58 µM; GI50 ([4]; Homo sapiens): 50 µM; GI50 ([5]; Homo sapiens): 6.13 ± 3.05 µM; GI50 (MIA (pancreas) cells; Homo sapiens): 20 ± 0.67 µM; GI50 (SJ-G2 (brain) cells; Homo sapiens): 13 ± 1.2 µM; GI50 ([6]; Homo sapiens, SK-BR-3, SKBR3, Breast (HER2)): 21 ± 0.67 µM; GI50 (T47D breast cancer cells; Homo sapiens): 16 ± 0.58 µM; GI50 (U87 (brain) cells; Homo sapiens): 25 ± 1.7 µM; GI50 ([7]; Homo sapiens): 24 ± 3.3 µM
